Reference: patent US20230114728A1 (Venatorx Pharmaceuticals, Inc., priority 2019, published 2023)
Values after ≈ are worked out from the molar mass of the structure shown.

Legend:
Assay type in all cases: cell-based
E. coli AG100A = assay: Broth microdilution MIC in CAMHB; conditions: Escherichia coli, read-out: Minimum Inhibitory Concentration, E. coli AG100A
Procedure, shortened: (§1)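 CLSI microdilution; CAMHB; inoculum 2-8×10^5 CFU/mL from 3-5 h 37° C culture; 2-fold compound series; 16-20 h, 37° C; MIC = lowest well without visible growth.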

E. coli ATCC 25922 = assay: Broth microdilution MIC in CAMHB; conditions: Escherichia coli, ATCC25922; E. coli ATCC 25922; MHB; read-out: Minimum Inhibitory Concentration, E. coli 25922
Procedure, shortened: as §1

E. coli D22 = assay: Broth microdilution MIC in CAMHB; conditions: Escherichia coli; E. coli D22 (hyper-permeable); MHB; read-out: Minimum Inhibitory Concentration, E. coli D22
Procedure, shortened: as §1

[1] = tested on: K. pneumoniae SI-117 producing VIM-1; assay: Broth microdilution MIC in CAMHB; conditions: Klebsiella pneumoniae, read-out: Minimum Inhibitory Concentration, K. pneumoniae SI-117
Procedure, shortened: as §1

P. aeruginosa ATCC 35151 = assay: Broth microdilution MIC in CAMHB; conditions: Pseudomonas aeruginosa, ATCC35151; MHB; hyper-permeable strain; read-out: Minimum Inhibitory Concentration, P. aeruginosa ATCC 35151
Procedure, shortened: as §1

[2] = tested on: N. gonorrhoeae ATCC 49226; assay: Liquid broth MIC in Fastidious broth; conditions: Neisseria gonorrhoeae, ATCC49226; N. gonorrhoeae strain ATCC 49226; Fastidious broth; read-out: Minimum Inhibitory Concentration, N. gonorrhoeae ATCC 49226
Procedure, shortened: (§2)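 Colonies were swabbed from chocolate agar after 24 h growth and standardised by optical density at 600 nm. Compounds were serially diluted twofold in Fastidious broth, and bacteria added to give 5×10^5 CFU/mL. After about 24 h at 36 °C in 5% CO2, the lowest concentration allowing under 10% growth was taken as MIC.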

N. gonorrhoeae FA1090 = assay: Liquid broth MIC in Fastidious broth; conditions: Neisseria gonorrhoeae; N. gonorrhoeae strain FA1090; Fastidious broth; read-out: Minimum Inhibitory Concentration, N. gonorrhoeae FA1090
Procedure, shortened: as §2

N. gonorrhoeae H041 = assay: Liquid broth MIC in Fastidious broth; conditions: Neisseria gonorrhoeae, H041, read-out: Minimum Inhibitory Concentration, N. gonorrhoeae H041
Procedure, shortened: (§3)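 MIC = lowest concentration giving <10% growth relative to untreated wells, scored by eye after ~24 h at 36 °C, 5% CO2. Strains carry mosaic PBP2; inoculum 5×10^5 CFU/mL in Fastidious broth with 2-fold serial compound dilutions.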

N. gonorrhoeae WHO G = assay: Liquid broth MIC in Fastidious broth; conditions: Neisseria gonorrhoeae; N. gonorrhoeae strain WHO G; Fastidious broth; read-out: Minimum Inhibitory Concentration, N. gonorrhoeae WHO G
Procedure, shortened: as §2

N. gonorrhoeae WHO K = assay: Liquid broth MIC in Fastidious broth; conditions: Neisseria gonorrhoeae, read-out: Minimum Inhibitory Concentration, N. gonorrhoeae WHO K
Procedure, shortened: as §3

N. gonorrhoeae WHO L = assay: Liquid broth MIC in Fastidious broth; conditions: Neisseria gonorrhoeae; N. gonorrhoeae strain WHO L; Fastidious broth; read-out: Minimum Inhibitory Concentration, N. gonorrhoeae WHO L
Procedure, shortened: as §2

N. gonorrhoeae WHO Q = assay: Liquid broth MIC in Fastidious broth; conditions: Neisseria gonorrhoeae, read-out: Minimum Inhibitory Concentration, N. gonorrhoeae WHO Q
Procedure, shortened: as §3

N. gonorrhoeae WHO Z = assay: Liquid broth MIC in Fastidious broth; conditions: Neisseria gonorrhoeae, read-out: Minimum Inhibitory Concentration, N. gonorrhoeae WHO Z
Procedure, shortened: as §3

| SMILES | MIC (E. coli AG100A) | MIC (E. coli ATCC 25922) | MIC (E. coli D22) | MIC [1] | MIC (P. aeruginosa ATCC 35151) | MIC [2] | MIC (N. gonorrhoeae FA1090) | MIC (N. gonorrhoeae H041) | MIC (N. gonorrhoeae WHO G) | MIC (N. gonorrhoeae WHO K) | MIC (N. gonorrhoeae WHO L) | MIC (N. gonorrhoeae WHO Q) | MIC (N. gonorrhoeae WHO Z) |
| --- | --- | --- | --- | --- | --- | --- | --- | --- | --- | --- | --- | --- | --- |
| CCN1CCN(C(=O)N[C@H](C(=O)N[C@H]2Cc3cccc(C(=O)O)c3OB2O)c2ccc(C(=O)O)cc2)C(=O)C1=O (single isomer, unassigned) [Example 123] | 8 to 16 µg/mL (≈ 14.5 to 29 µM) | > 128 µg/mL | 2 to 4 µg/mL (≈ 3.62 to 7.24 µM) | > 128 µg/mL | 0.5 to 1 µg/mL (≈ 0.905 to 1.81 µM) | 4 to 8 µg/mL (≈ 7.24 to 14.5 µM) | 0.25 to 0.5 µg/mL (≈ 0.453 to 0.905 µM) | 16 to 32 µg/mL (≈ 29 to 57.9 µM) | 1 to 2 µg/mL (≈ 1.81 to 3.62 µM) | 4 to 8 µg/mL (≈ 7.24 to 14.5 µM) | 16 to 32 µg/mL (≈ 29 to 57.9 µM) | 4 to 8 µg/mL (≈ 7.24 to 14.5 µM) | 1 to 2 µg/mL (≈ 1.81 to 3.62 µM) |
| CS(=O)(=O)N1CCN(C(=O)N[C@H](C(=O)N[C@H]2Cc3cccc(C(=O)O)c3OB2O)c2c(F)cc(O)cc2F)C1=O (single isomer, unassigned) [Example 136] | 8 to 16 µg/mL (≈ 13.7 to 27.5 µM) | > 128 µg/mL | 8 to 16 µg/mL (≈ 13.7 to 27.5 µM) | > 128 µg/mL | 2 to 4 µg/mL (≈ 3.43 to 6.87 µM) | > 64 µg/mL | 1 to 2 µg/mL (≈ 1.72 to 3.43 µM) | > 64 µg/mL | 16 to 32 µg/mL (≈ 27.5 to 55 µM) | > 64 µg/mL | > 64 µg/mL | > 64 µg/mL | > 64 µg/mL |
| NCCN1CCN(C(=O)N[C@@H](C(=O)N[C@H]2Cc3cccc(C(=O)O)c3OB2O)c2cc(F)c(O)c(F)c2F)C(=O)C1=O (single isomer, unassigned) [Example 168] | 0.5 to 1 µg/mL (≈ 0.843 to 1.69 µM) | 8 to 16 µg/mL (≈ 13.5 to 27 µM) | 0.5 to 1 µg/mL (≈ 0.843 to 1.69 µM) | 32 to 64 µg/mL (≈ 53.9 to 108 µM) | < 0.25 µg/mL | 4 to 8 µg/mL (≈ 6.74 to 13.5 µM) | 0.25 to 0.5 µg/mL (≈ 0.421 to 0.843 µM) | > 64 µg/mL | 1 to 2 µg/mL (≈ 1.69 to 3.37 µM) | 16 to 32 µg/mL (≈ 27 to 53.9 µM) | 16 to 32 µg/mL (≈ 27 to 53.9 µM) | 16 to 32 µg/mL (≈ 27 to 53.9 µM) | 16 to 32 µg/mL (≈ 27 to 53.9 µM) |
| NCCN1CCN(C(=O)N[C@H](C(=O)N[C@H]2Cc3cccc(C(=O)O)c3OB2O)c2cc(Cl)c(O)c(Cl)c2)C(=O)C1=O (single isomer, unassigned) [Example 165] | 8 to 16 µg/mL (≈ 13.2 to 26.3 µM) | > 128 µg/mL | 32 to 64 µg/mL (≈ 52.6 to 105 µM) | > 128 µg/mL | 0.5 to 1 µg/mL (≈ 0.822 to 1.64 µM) | > 64 µg/mL | 4 to 8 µg/mL (≈ 6.58 to 13.2 µM) | > 64 µg/mL | > 64 µg/mL | > 64 µg/mL | > 64 µg/mL | > 64 µg/mL | > 64 µg/mL |
| CCN1CCN(C(=O)N[C@@H](C(=O)N[C@H]2Cc3cccc(C(=O)O)c3OB2O)c2ccc(C(=O)O)c(F)c2F)C(=O)C1=O (single isomer, unassigned) [Example 140] | 2 to 4 µg/mL (≈ 3.4 to 6.8 µM) | 32 to 64 µg/mL (≈ 54.4 to 109 µM) | 2 to 4 µg/mL (≈ 3.4 to 6.8 µM) | > 128 µg/mL | < 0.25 µg/mL | 0.25 to 0.5 µg/mL (≈ 0.425 to 0.85 µM) | < 0.125 µg/mL | 1 to 2 µg/mL (≈ 1.7 to 3.4 µM) | 0.25 to 0.5 µg/mL (≈ 0.425 to 0.85 µM) | 1 to 2 µg/mL (≈ 1.7 to 3.4 µM) | 1 to 2 µg/mL (≈ 1.7 to 3.4 µM) | 1 to 2 µg/mL (≈ 1.7 to 3.4 µM) | 0.25 to 0.5 µg/mL (≈ 0.425 to 0.85 µM) |
| O=C(O)c1cccc2c1OB(O)[C@@H](NC(=O)C(NC(=O)N1CCN(CCF)C(=O)C1=O)c1c(F)cc(O)cc1F)C2 (mixture of isomers) [Example 119, (3R)-3-(2-(2,6-difluoro-4-hydroxyphenyl)-2-(4-(2-fluoroethyl)-2,3-dioxopiperazine-1-carboxamido)acetamido)-2-hydroxy-3,4-dihydro-2H-benzo[e][1,2]oxaborinine-8-carboxylic acid] | 0.5 to 1 µg/mL (≈ 0.865 to 1.73 µM) | 8 to 16 µg/mL (≈ 13.8 to 27.7 µM) | 0.5 to 1 µg/mL (≈ 0.865 to 1.73 µM) | 32 to 64 µg/mL (≈ 55.3 to 111 µM) | 2 to 4 µg/mL (≈ 3.46 to 6.92 µM) | 16 to 32 µg/mL (≈ 27.7 to 55.3 µM) | 0.25 to 0.5 µg/mL (≈ 0.432 to 0.865 µM) | > 64 µg/mL | 1 to 2 µg/mL (≈ 1.73 to 3.46 µM) | 16 to 32 µg/mL (≈ 27.7 to 55.3 µM) | 16 to 32 µg/mL (≈ 27.7 to 55.3 µM) | 16 to 32 µg/mL (≈ 27.7 to 55.3 µM) | 4 to 8 µg/mL (≈ 6.92 to 13.8 µM) |
